Where two headings read alike, the source gives them in different places.
What was measured:
Assay type in all cases: cell-based
[1] = SRB colorimetric cell growth inhibition assay, H-MEC-1; settings: human, H-MEC-1, cell killing (cytotoxic effect), read-out: LC50 H-MEC-1
In short: (§1)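 Growth inhibition (GI), total growth inhibition (TGI, cytostatic) and lethal concentration (LC, cytotoxic) come from an SRB-based colorimetric measure of growth and viability. Data are triplicate-well means ± SD.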

[2] = system: H-MEC-1; assay: as above; settings: Homo sapiens, HMEC-1, H-MEC-1; for GI50: GI=growth inhibition, read-out: GI50 H-MEC-1; for IC (TGI): total growth inhibition (cytostatic effect), read-out: TGI H-MEC-1
In short: as §1

[3] = system: SK-MEL-28; assay: SRB colorimetric cell growth inhibition assay, SK-MEL-28; settings: Homo sapiens, SK-MEL-28, MEL-28; for GI50: GI=growth inhibition, read-out: GI50 MEL-28; for CC50: cell killing (cytotoxic effect), read-out: LC50 MEL-28; for IC (TGI): total growth inhibition (cytostatic effect), read-out: TGI MEL-28
In short: (§2)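 Continuous drug exposure of human cancer cells; SRB protein stain read-out; triplicate wells, mean ± SD; GI, TGI, LC computed.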

[4] = system: LoVo; assay: SRB colorimetric cell growth inhibition assay, LoVo; settings: Homo sapiens; for CC50: LC=cell killing (cytotoxic effect), read-out: LC50 LOVO; for GI50: GI=growth inhibition, read-out: GI50 LOVO; for IC (TGI): TGI=total growth inhibition (cytostatic effect), read-out: TGI LOVO
In short: as §2

[5] = system: IGROV; assay: SRB colorimetric cell growth inhibition assay, IGROV
In short: as §2

[6] = system: DU-145; assay: SRB colorimetric cell growth inhibition assay, DU-145; settings: Homo sapiens; for CC50: cell killing (cytotoxic effect), read-out: LC50 DU-145; for GI50: GI=growth inhibition, read-out: GI50 DU-145; for IC (TGI): total growth inhibition (cytostatic effect), read-out: TGI DU-145
In short: as §2

[7] = system: LoVo-Dox; assay: SRB colorimetric cell growth inhibition assay, LoVo-Dox (MDR)
In short: as §2

[8] = system: A-549; assay: SRB colorimetric cell growth inhibition assay, A-549; settings: Homo sapiens, A549, A-549; for GI50: GI=growth inhibition, read-out: GI50 A-549; for CC50: LC=cell killing (cytotoxic effect), read-out: LC50 A-549; for IC (TGI): TGI=total growth inhibition (cytostatic effect), read-out: TGI A-549
In short: as §2

[9] = system: LNCaP; assay: SRB colorimetric cell growth inhibition assay, LNCaP; settings: Homo sapiens, LNCaP, LN-caP; for GI50: GI=growth inhibition, read-out: GI50 LN-caP; for CC50: cell killing (cytotoxic effect), read-out: LC50 LN-caP; for IC (TGI): total growth inhibition (cytostatic effect), read-out: TGI LN-caP
In short: as §2

[10] = system: PANC-1; assay: SRB colorimetric cell growth inhibition assay, PANC-1; settings: Homo sapiens; for CC50: LC=cell killing (cytotoxic effect), read-out: LC50 PANC-1; for IC (TGI): TGI=total growth inhibition (cytostatic effect), read-out: TGI PANC-1; for GI50: GI=growth inhibition, read-out: GI50 PANC-1
In short: as §2

[11] = system: K-562; assay: SRB colorimetric cell growth inhibition assay, K-562; settings: Homo sapiens, K562, K-562; for GI50: GI=growth inhibition, read-out: GI50 K-562; for CC50: LC=cell killing (cytotoxic effect), read-out: LC50 K-562; for IC (TGI): TGI=total growth inhibition (cytostatic effect), read-out: TGI K-562
In short: as §2

[12] = system: HT-29; assay: SRB colorimetric cell growth inhibition assay, HT-29; settings: Homo sapiens; for CC50: LC=cell killing (cytotoxic effect), read-out: LC50 HT-29; for GI50: GI=growth inhibition, read-out: GI50 HT-29; for IC (TGI): TGI=total growth inhibition (cytostatic effect), read-out: TGI HT-29
In short: as §2

[13] = system: SK-BR-3; assay: SRB colorimetric cell growth inhibition assay, SK-BR-3; settings: Homo sapiens; for CC50: cell killing (cytotoxic effect), read-out: LC50 SK-BR-3; for GI50: GI=growth inhibition, read-out: GI50 SK-BR-3; for IC (TGI): total growth inhibition (cytostatic effect), read-out: TGI SK-BR-3
In short: as §2

[14] = system: IGROV-ET; assay: SRB colorimetric cell growth inhibition assay, IGROV-ET (ET-743 resistant); settings: Homo sapiens, IGROV-ET; for GI50: GI=growth inhibition, read-out: GI50 IGROV-ET; for CC50: cell killing (cytotoxic effect), read-out: LC50 IGROV-ET; for IC (TGI): total growth inhibition (cytostatic effect), read-out: TGI IGROV-ET
In short: as §2

[15] = system: SKOV-3; assay: SRB colorimetric cell growth inhibition assay, SKOV-3; settings: Homo sapiens; for GI50: SK-OV-3, SKOV-3, GI=growth inhibition, read-out: GI50 SKOV-3; for LC50 (concentration causing 50% net cell killing) / IC (TGI): SK-OV-3, SKOV-3; for LC50 (concentration causing 50% net cell killing): cell killing (cytotoxic effect), read-out: LC50 SKOV-3; for IC (TGI): total growth inhibition (cytostatic effect), read-out: TGI SKOV-3
In short: as §1

[16] = Homo sapiens, IGROV; cell killing (cytotoxic effect); read-out: LC50 IGROV
[17] = Homo sapiens, LOVO-DOX; GI=growth inhibition; read-out: GI50 LOVO-DOX
[18] = Homo sapiens, LOVO-DOX; LC=cell killing (cytotoxic effect); read-out: LC50 LOVO-DOX

With `COc1cc(-c2c3n(c4c(=O)oc5cc(OC(=O)[C@H](Cc6c[nH]c7ccccc67)NC(=O)OC(C)(C)C)c(OC)cc5c24)CCc2cc(OC(=O)[C@H](Cc4c[nH]c5ccccc45)NC(=O)OC(C)(C)C)c(OC)cc2-3)ccc1OC(=O)[C@H](Cc1c[nH]c2ccccc12)NC(=O)OC(C)(C)C` [Compound 29] the LC50 (concentration giving 50% net cell killing) [1] was 0.29 µM, the GI50 [2] was 0.0242 µM and the IC (TGI) [2] was 0.0526 µM. It also gave a GI50 [3] of 1.55 µM, a CC50 [3] of 6.45 µM and an IC (TGI) [3] of 3.17 µM. It also gave a CC50 ([4]; LoVo) of 7.35 µM, a GI50 ([4]; LOVO) of 2.91 µM and an IC (TGI) ([4]; LOVO) of 7.35 µM. It also gave a CC50 [5, 16] of 7.35 µM, a GI50 ([5]; Homo sapiens; IGROV; GI=growth inhibition; read-out: GI50 IGROV) of 0.367 µM and an IC (TGI) ([5]; Homo sapiens; IGROV; total growth inhibition (cytostatic effect); read-out: TGI IGROV) of 1.66 µM. The CC50 ([6]; DU-145, DU-145) was 3.9 µM, the GI50 ([6]; DU-145) was 0.198 µM and the IC (TGI) ([6]; DU-145) was 0.44 µM. The GI50 [7, 17] was 7.35 µM, the CC50 [7, 18] was 7.35 µM and the IC (TGI) ([7]; Homo sapiens; LOVO-DOX; TGI=total growth inhibition (cytostatic effect); read-out: TGI LOVO-DOX) was 7.35 µM. The GI50 [8] was 1.73 µM, the CC50 [8] was 7.35 µM and the IC (TGI) [8] was 3.63 µM. It also gave a GI50 [9] of 0.0704 µM, a CC50 [9] of 0.396 µM and an IC (TGI) [9] of 0.169 µM. The CC50 ([10]; PANC-1, PANC-1) was 7.35 µM, the IC (TGI) ([10]; PANC-1, PANC-1) was 4.23 µM and the GI50 ([10]; PANC-1) was 0.978 µM. The GI50 [11] was 0.481 µM, the CC50 [11] was 7.35 µM and the IC (TGI) [11] was 3.46 µM. The CC50 ([12]; HT-29, HT-29) was 7.35 µM, the GI50 ([12]; HT-29) was 1.84 µM and the IC (TGI) ([12]; HT-29) was 5.08 µM. For the same molecule, the CC50 ([13]; SK-BR-3, SK-BR-3) was 7.03 µM, the GI50 ([13]; SK-BR-3) was 0.242 µM and the IC (TGI) ([13]; SK-BR-3) was 0.525 µM. It also gave a GI50 [14] of 5.65 µM, a CC50 [14] of 7.35 µM and an IC (TGI) [14] of 7.35 µM. The GI50 [15] was 1.79 µM, the LC50 (concentration causing 50% net cell killing) [15] was 7.35 µM and the IC (TGI) [15] was 3.9 µM.

For `COc1cc(-c2c3c4cc(OC)c(OC(=O)[C@@H]5CCCN5)cc4oc(=O)c3n3ccc4c(OC(=O)[C@@H]5CCCN5)c(OC)c(OC)cc4c23)ccc1OC(=O)[C@@H]1CCCN1` [Compound 30], the LC50 (concentration giving 50% net cell killing) ([1]; H-MEC-1 cells) was 0.84 µM, the GI50 [2] was 0.0705 µM and the IC (TGI) [2] was 0.241 µM. It also gave a GI50 [3] of 0.251 µM, a CC50 [3] of 4.42 µM and an IC (TGI) [3] of 1.08 µM. It also gave a GI50 ([4]; LoVo) of 0.383 µM, a CC50 ([4]; LoVo) of 3.77 µM and an IC (TGI) ([4]; LoVo) of 1.06 µM. For the same molecule, the GI50 ([5]; Homo sapiens, IGROV; GI=growth inhibition; read-out: GI50 IGROV) was 0.35 µM, the CC50 [5, 16] was 6.99 µM and the IC (TGI) ([5]; Homo sapiens, IGROV; total growth inhibition (cytostatic effect); read-out: TGI IGROV) was 1.47 µM. It also gave a GI50 ([6]; DU-145, DU-145) of 0.0538 µM, a CC50 ([6]; DU-145, DU-145) of 3.84 µM and an IC (TGI) ([6]; DU-145, DU-145) of 0.265 µM. The GI50 [7, 17] was 0.683 µM, the CC50 [7, 18] was 5.22 µM and the IC (TGI) ([7]; Homo sapiens, LOVO-DOX; TGI=total growth inhibition (cytostatic effect); read-out: TGI LOVO-DOX) was 1.93 µM. The GI50 [8] was 0.341 µM, the CC50 [8] was 6.64 µM and the IC (TGI) [8] was 1.27 µM. The GI50 [9] was 0.275 µM, the CC50 [9] was 4.9 µM and the IC (TGI) [9] was 1.27 µM. The GI50 ([10]; PANC-1, PANC-1) was 0.805 µM, the CC50 ([10]; PANC-1, PANC-1) was 5.64 µM and the IC (TGI) ([10]; PANC-1, PANC-1) was 2.18 µM. It also gave a GI50 [11] of 0.204 µM, a CC50 [11] of 8.6 µM and an IC (TGI) [11] of 1.1 µM. The GI50 ([12]; HT-29, HT-29) was 2.81 µM, the CC50 ([12]; HT-29, HT-29) was 8.6 µM and the IC (TGI) ([12]; HT-29, HT-29) was 5.06 µM. For the same molecule, the GI50 ([13]; SK-BR-3, SK-BR-3) was 0.498 µM, the CC50 ([13]; SK-BR-3, SK-BR-3) was 6.39 µM and the IC (TGI) ([13]; SK-BR-3, SK-BR-3) was 1.61 µM. For the same molecule, the GI50 [14] was 0.45 µM, the CC50 [14] was 6.63 µM and the IC (TGI) [14] was 1.83 µM. It also gave a GI50 [15] of 0.348 µM, an LC50 (concentration causing 50% net cell killing) [15] of 5.36 µM and an IC (TGI) [15] of 1.24 µM.

— patent US7396837B2, “Antitumoral analogs of lamellarins” (Pharma Mar, S.A.U., priority 2002, dated 2008)
